Measured values taken from patent US20250206773A1, “FORMS AND COMPOSITIONS OF SODIUM CHENODEOXYCHOLATE” (Syntis Bio, Inc., priority 2022, published 2025).
Where two headings read alike, the source gives them in different places.

What was measured:
[1] = Exposure to moist air (RH 95%, room temperature), XRPD before/after; assay type: physicochemical
Experimental: FIG. 4 is a series of XRPD patterns, showing NaCDC Form A before (thick line) and after (thin line) 15 hours of exposure to RH 95% at room temperature. FIG. 8 is a series of XRPD patterns, showing NaCDC Form B before (thick line) and after (thin line) 15 hours of exposure to RH 95% at room temperature.

[2] = assay type: physicochemical
Experimental: HPLC analysis was carried out on an Agilent 1260 Infinity chromatograph, using a Hichrom C18 column 100×4.6 mm, 3.5 m, at 40° C. Method details were as follows:
Around 10 mg of NaCDC Form B was weighed into clear HPLC vials and the selected solvents (500 μL) were added to the vials. Experiments ST07, 09, 11, 13, 15, 17, 19 and 21 were kept stirring for 24 h at 30° C. and 60° C., while samples were taken after 4 h and 24 h for HPLC analysis. Subsequently, the same experiments were evaporated at 30° C. for 24 h under reduced pressure (21-22 mbar), and the solids were evaluated by HPLC and XRPD. Separately, the solutions and slurries from experiments ST10, 12, 14, 16, 18, 20 and 22 were stirred for 24 h at 30° C. and 60° C. (no samples were taken) and evaporated at 60° C. for 24 h under reduced pressure (20-21 mbar). The recovered materials were sampled for HPLC and XRPD analyses.

[3] = assay type: physicochemical; details: SAS01; Water (H2O); solid after evaporation A (30° C., 20-21 mbar, 21 hours)
Experimental: HPLC analysis was carried out on an Agilent 1260 Infinity chromatograph, using a Hichrom C18 column 100×4.6 mm, 3.5 m, at 40° C. Method details were as follows: [table] Around 10 mg of NaCDC Form B was weighed into 1.6 mL HPLC vials. 3-5 mm PTFE-covered cylindrical magnetic stirring bars were added to the vials. […] The vials were visually inspected before each addition to check for the dissolution of the starting material, and the solvent addition was stopped when a complete dissolution was observed. The clear solutions were left to rest at RT. […] The experiments were held at each temperature for 1 h, and then they were visually inspected to see if dissolution occurred. At the end of the experimental time, the magnetic stirring bars were removed, and all slurries or solutions were dried at different temperatures depending on the boiling points of each solvent used (i.e., at 30° C., 20-21 mbar or 50° C., 21 mbar, for 21 hours; with the exception of experiments SASO7, SAS33, SAS34, SAS35, SAS36 and SAS45 which were dried at 50° C. for 43 hours). All the resulting solids were analyzed by XRPD. For several selected experiments, HPLC analysis was performed. The solids that gave new XRPD patterns were investigated by TGA/DSC. [table]

[4] = ST13: Methanol, solution, 60° C.
[5] = ST17: n-Heptane, slurry, 60° C.

effect of exposure to moist air (XRPD) ([1]; 15-20 hours at 95% humidity): eventual amorphization
loss of crystallinity on moist air exposure compared with Form A ([1]; 95% humidity): markedly slower
HPLC purities throughout the stability tests [2]: ≥ 86.1%
form stability in slurry experiments (XRPD) [2]: stable
stability in solution and/or slurry [2]: remained stable
HPLC (%) at 212 nm (after evap.) ([2]; ST07: Water solution RT 24 h, evaporated at 30° C. 24 h): 97.8%
XRPD (after evap.) ([2]; ST07: Water solution RT, evaporated at 30° C.): Am.
HPLC (%) at 212 nm (before evap.) 4 h ([2]; ST07: Water, solution, RT): 100.0%
HPLC (%) at 212 nm (before evap.) 24 h ([2]; ST07: Water, solution, RT): 96.2%
HPLC (%) at 212 nm (after evap.) ([2]; ST08: Water solution RT 24 h, evaporated at 60° C. 24 h, listed as NaCDC Form B): 84.6%
HPLC (%) at 212 nm (after evap.) ([2]; ST08: Water solution RT 24 h, evaporated at 60° C. 24 h, listed as starting material): around 84.5%
XRPD (after evap.) ([2]; ST08: Water solution RT, evaporated at 60° C.): Am.
HPLC (%) at 212 nm (after evap.) ([2]; ST09: Water solution 60° C. 24 h, evaporated at 30° C. 24 h): 95.7%
XRPD (after evap.) ([2]; ST09: Water solution 60° C., evaporated at 30° C.): Am.
HPLC (%) at 212 nm (before evap.) 4 h ([2]; ST09: Water, solution, 60° C.): 100.0%
HPLC (%) at 212 nm (before evap.) 24 h ([2]; ST09: Water, solution, 60° C.): 96.6%
HPLC (%) at 212 nm (after evap.) ([2]; ST10: Water solution 60° C. 24 h, evaporated at 60° C. 24 h): 90.0%
XRPD (after evap.) ([2]; ST10: Water solution 60° C., evaporated at 60° C.): Am.
HPLC (%) at 212 nm (after evap.) ([2]; ST11: Methanol solution RT 24 h, evaporated at 30° C. 24 h): 87.1%
XRPD (after evap.) ([2]; ST11: Methanol solution RT, evaporated at 30° C.): Am.
HPLC (%) at 212 nm (before evap.) 4 h ([2]; ST11: Methanol, solution, RT): 91.4%
HPLC (%) at 212 nm (before evap.) 24 h ([2]; ST11: Methanol, solution, RT): 93.5%
HPLC (%) at 212 nm (after evap.) ([2]; ST12: Methanol solution RT 24 h, evaporated at 60° C. 24 h): 90.5%
XRPD (after evap.) ([2]; ST12: Methanol solution RT, evaporated at 60° C.): Am.
HPLC (%) at 212 nm (after evap.) ([2]; ST13: Methanol solution 60° C. 24 h, evaporated at 30° C. 24 h): no peak~
XRPD (after evap.) ([2]; ST13: Methanol solution 60° C., evaporated at 30° C.): Am.
HPLC (%) at 212 nm (before evap.) 4 h [2, 4]: 94.8%
HPLC (%) at 212 nm (before evap.) 24 h [2, 4]: 90.3%
HPLC (%) at 212 nm (after evap.) ([2]; ST14: Methanol solution 60° C. 24 h, evaporated at 60° C. 24 h): 92.5%
XRPD (after evap.) ([2]; ST14: Methanol solution 60° C., evaporated at 60° C.): Am.
HPLC (%) at 212 nm (after evap.) ([2]; ST15: n-Heptane slurry RT 24 h, evaporated at 30° C. 24 h): no peak~
HPLC (%) at 212 nm (before evap.) 4 h ([2]; ST15: n-Heptane, slurry, RT): 89.9%
HPLC (%) at 212 nm (before evap.) 24 h ([2]; ST15: n-Heptane, slurry, RT): 100.0%
HPLC (%) at 212 nm (after evap.) ([2]; ST16: n-Heptane slurry RT 24 h, evaporated at 60° C. 24 h, listed as NaCDC Form B): 84.5%
HPLC (%) at 212 nm (after evap.) ([2]; ST16: n-Heptane slurry RT 24 h, evaporated at 60° C. 24 h, listed as starting material): around 84.5%
HPLC (%) at 212 nm (after evap.) ([2]; ST17: n-Heptane slurry 60° C. 24 h, evaporated at 30° C. 24 h): 93.6%
HPLC (%) at 212 nm (before evap.) 4 h [2, 5]: 91.5%
HPLC (%) at 212 nm (before evap.) 24 h [2, 5]: 91.4%
HPLC (%) at 212 nm (after evap.) ([2]; ST18: n-Heptane slurry 60° C. 24 h, evaporated at 60° C. 24 h): 90.4%
HPLC (%) at 212 nm (after evap.) ([2]; ST19: MEK slurry RT 24 h, evaporated at 30° C. 24 h): 74.1%
HPLC (%) at 212 nm (before evap.) 4 h ([2]; ST19: MEK, slurry, RT): 100.0%
HPLC (%) at 212 nm (before evap.) 24 h ([2]; ST19: MEK, slurry, RT): 97.7%
HPLC (%) at 212 nm (after evap.) ([2]; ST20: MEK slurry RT 24 h, evaporated at 60° C. 24 h): 86.1%
HPLC (%) at 212 nm (after evap.) ([2]; ST21: MEK slurry 60° C. 24 h, evaporated at 30° C. 24 h): 55.9%
HPLC (%) at 212 nm (before evap.) 4 h ([2]; ST21: MEK, slurry, 60° C.): 65.2%
HPLC (%) at 212 nm (before evap.) 24 h ([2]; ST21: MEK, slurry, 60° C.): 94.5%
HPLC (%) at 212 nm (after evap.) ([2]; ST22: MEK slurry 60° C. 24 h, evaporated at 60° C. 24 h): 86.6%
HPLC (%) 212 nm [3]: 84.9%
Compound: C[C@H](CCC(=O)[O-])[C@H]1CC[C@H]2[C@@H]3[C@H](O)C[C@@H]4C[C@H](O)CC[C@]4(C)[C@H]3CC[C@]12C.[Na+] [Form B, sodium chenodeoxycholate]
